Patent publication US10759783B2, “Biaryl inhibitors of Bruton'S tyrosine kinase” (BIOGEN MA INC., priority 2013, dated 2020)

Key:
BTK enzyme = molecular target: T1, BTK enzyme (Homo sapiens, UniProt Q06187); assay: In vitro BTK kinase assay: BTK-POLYGAT-LS assay; assay type: biochemical; conditions: ATP 10 μM, read-out: IC50 (10uMATP)
T1 construct: purchased Upstate 14-552
Outline: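 Human BTK activity was measured with final 10 μM ATP and 100 nM polyGAT substrate in pH 7.5 Tris buffer with 10 mM MgCl2, DTT, Triton X-100 and casein.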

[1] = molecular target: BTK (phospho-BTK) in human whole blood (Homo sapiens, UniProt Q06187); assay: In vitro PD assay in human whole blood (pBTK assay)
Sequence of BTK (phospho-BTK) in human whole blood (Q06187 whole entry): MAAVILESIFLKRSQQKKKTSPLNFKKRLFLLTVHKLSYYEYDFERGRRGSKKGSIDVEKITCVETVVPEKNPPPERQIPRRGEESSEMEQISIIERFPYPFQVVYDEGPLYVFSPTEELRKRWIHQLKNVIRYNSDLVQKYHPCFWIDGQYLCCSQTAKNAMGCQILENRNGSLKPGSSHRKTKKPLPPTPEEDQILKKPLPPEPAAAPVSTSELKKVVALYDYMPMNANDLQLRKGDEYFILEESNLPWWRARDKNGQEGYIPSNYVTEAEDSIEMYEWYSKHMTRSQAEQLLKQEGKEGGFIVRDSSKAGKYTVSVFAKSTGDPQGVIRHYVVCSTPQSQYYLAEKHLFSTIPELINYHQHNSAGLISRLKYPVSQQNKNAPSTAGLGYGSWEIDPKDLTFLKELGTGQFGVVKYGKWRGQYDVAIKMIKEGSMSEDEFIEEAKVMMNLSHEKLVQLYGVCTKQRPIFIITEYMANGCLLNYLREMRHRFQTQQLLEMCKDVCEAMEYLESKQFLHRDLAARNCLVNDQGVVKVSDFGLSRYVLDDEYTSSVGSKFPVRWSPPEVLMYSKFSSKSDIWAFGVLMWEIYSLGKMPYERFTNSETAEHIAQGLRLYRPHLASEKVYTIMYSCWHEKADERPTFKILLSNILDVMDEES

T1 sequence (Q06187 whole entry): as above

IC50 (BTK enzyme) [µM] | IC50 [1] [µM] | Compound
< 0.01 | < 0.5 | Cc1cc(-c2ccnc(Nc3cnn(CCO)c3)n2)ccc1CNC(=O)N1CC(OC(C)C)C1 [Example I-217, N-(4-(2-((1-(2-hydroxyethyl)-1H-pyrazol-4-yl)amino)pyrimidin-4-yl)-2-methylbenzyl)-3-isopropoxyazetidine-1-carboxamide]
< 0.01 | < 0.5 | Cc1cc(-c2ccnc(Nc3cnn(C4CN(C)C4)c3)n2)ccc1CNC(=O)N1CC(OC(C)C)C1 [Example I-218, 3-isopropoxy-N-(2-methyl-4-(2-((1-(1-methylazetidin-3-yl)-1H-pyrazol-4-yl)amino)pyrimidin-4-yl)benzyl)azetidine-1-carboxamide]
< 0.01 | < 0.5 | Cc1cc(-c2ccnc(Nc3cnn(C4CCN(C)CC4)c3)n2)ccc1CNC(=O)N1CC(OC(C)C)C1 [Example I-219, 3-isopropoxy-N-(2-methyl-4-(2-((1-(1-methylpiperidin-4-yl)-1H-pyrazol-4-yl)amino)pyrimidin-4-yl)benzyl)azetidine-1-carboxamide]
< 0.01 | < 0.5 | Cc1cc(-c2ccnc(Nc3cnn(C4CCOCC4)c3)n2)ccc1CNC(=O)N1CC(OC(C)C)C1 [Example I-221, 3-isopropoxy-N-(2-methyl-4-(2-((1-(tetrahydro-2H-pyran-4-yl)-1H-pyrazol-4-yl)amino)pyrimidin-4-yl)benzyl)azetidine-1-carboxamide]
< 0.01 | 0.5 to 1.5 | Cc1cc(-c2ccnc(Nc3cn[nH]c3)n2)ccc1CNC(=O)N1CC(OC(C)C)C1 [Example I-222, N-(4-(2-((1H-pyrazol-4-yl)amino)pyrimidin-4-yl)-2-methylbenzyl)-3-isopropoxyazetidine-1-carboxamide]
< 0.01 | < 0.5 | Cc1cc(-c2ccnc(Nc3cnn(C)c3)n2)ccc1CNC(=O)N1CCC(C(C)(C)C)C1 (stereo not shown) [Example I-224, 3-(tert-butyl)-N-(2-methyl-4-(2-((1-methyl-1H-pyrazol-4-yl)amino)pyrimidin-4-yl)benzyl)pyrrolidine-1-carboxamide]
< 0.01 | < 0.5 | Cc1cc(-c2cc(Nc3ccc(N4CCN(C)CC4)cn3)ncn2)ccc1CNC(=O)c1cnn(C(C)(C)C)c1 [Example I-225, 1-(tert-butyl)-N-(2-methyl-4-(6-((5-(4-methylpiperazin-1-yl)pyridin-2-yl)amino)pyrimidin-4-yl)benzyl)-1H-pyrazole-4-carboxamide]
< 0.01 | < 0.5 | Cc1cc(-c2cc(Nc3ccc(N4CCN(C)CC4)cn3)ncn2)ccc1CNC(=O)c1ccn(C(C)(C)C)n1 [Example I-226, 1-(tert-butyl)-N-(2-methyl-4-(6-((5-(4-methylpiperazin-1-yl)pyridin-2-yl)amino)pyrimidin-4-yl)benzyl)-1H-pyrazole-3-carboxamide]
< 0.01 | < 0.5 | COCCn1cc(Nc2nccc(-c3ccc4c(c3)CCCC[C@H]4NC(=O)N3CC(OC(C)C)C3)n2)cn1 [Example I-227, (R)-3-isopropoxy-N-(2-(2-((1-(2-methoxyethyl)-1H-pyrazol-4-yl)amino)-pyrimidin-4-yl)-6,7,8,9-tetrahydro-5H-benzo[7]annulen-5-yl)azetidine-1-carboxamide]

Compound | IC50 (BTK enzyme) [µM] | IC50 [1] [µM]
Cc1cc(-c2ccnc(Nc3cnn(C)c3C)n2)ccc1CNC(=O)N1CC(OC(C)(C)C)C1 [Example I-223, 3-(tert-butoxy)-N-(4-(2-((1,5-dimethyl-1H-pyrazol-4-yl)amino)pyrimidin-4-yl)-2-methylbenzyl)azetidine-1-carboxamide] | < 0.01 | 0.5 to 1.5
CC(C)(C)OC1CN(C(=O)N[C@@H]2CCCCc3cc(-c4ccnc(Nc5cnn(CCO)c5)n4)ccc32)C1 [Example I-229, (R)-3-(tert-butoxy)-N-(2-(2-((1-(2-hydroxyethyl)-1H-pyrazol-4-yl)amino)-pyrimidin-4-yl)-6,7,8,9-tetrahydro-5H-benzo[7]annulen-5-yl)azetidine-1-carboxamide] | < 0.01 | < 0.5
